For one data set, the system named is E. coli ATCC 27325. It counts as cell-based, Escherichia coli. The note with it: ATCC 27325, 18 h. The method, then:
The MICs of the designed peptides were measured against the gram-negative bacterium E. coli ATCC 27325 according to the general guidelines of the Clinical and Laboratory Standards Institute, with some modifications based on a study of cationic AMPs. Briefly, a single bacterial colony was cultured in Mueller−Hinton broth (MHB; Sigma–Aldrich) until the mid-log phase (optical density of 0.4–0.6 at 600 nm). The bacterial suspension was diluted with fresh MHB to a concentration of 10^6 colony-forming units (CFU)/mL. Next, two-fold serial dilutions (128 to 1 μM) of the peptides were prepared in MHB and mixed (1:1) with the diluted bacterial culture, resulting in a final peptide concentration ranging from 64 to 0.5 μM and final bacteria concentration of 5 × 10^5 cells/mL. The mixtures were placed into 96-well polypropylene microtiter plates (Corning), with sterile MHB used as a negative control and MHB inoculated with bacterial cells used as growth control. The plates were incubated for 18 h at 37 °C with shaking at 200 rpm. The MIC values were determined as the lowest concentrations at which no bacterial growth was recorded at 600 nm using a microplate reader (Infinite 200 Pro; Tecan, Männedorf, Switzerland).

The test system of data set [1] is E. coli. The data set can be described thus: Antibacterial activity of peptide-coated surfaces (ISO 22196, modified), E. coli. It counts as cell-based, Escherichia coli. As to the method: (§1) To coat the designed peptides on a surface, 200 μL of freshly prepared 200 μM peptide solution (10 mM Tris-HCl, pH 8.5) was added into a 24-well PS plate and incubated for 10 min at 37 °C. After coating, the plates were rinsed with deionized water and air-dried. The PS, Ti, and PDMS pieces (1 cm × 1 cm) were coated in the same manner. For the PD-mediated AMP coating, a layer of PD was first coated on a 24-well PS plate by dip coating, as previously described, with minor modifications. Each PS well was treated with 2 mg/mL dopamine solution (10 mM Tris-HCl, pH 8.5) and incubated for approximately 1 h at 37 °C. The PD-coated wells were washed twice with deionized water to remove excess dopamine. To attach the NKC peptide to a PD-coated 24-well PS plate, NKC peptide solution (200 μM) was dispensed into each well, and the plate was incubated at 37 °C for 24 h. The wells with the immobilized peptide were then washed twice with deionized water.
(§2) The bactericidal activities of the AMP-coated surfaces were evaluated following the International Organization for Standardization 22196 standard with slight modifications. Overnight bacterial suspensions were subcultured in fresh LB until the mid-log phase and diluted to 10^6 cells/mL with 500-fold diluted LB. The AMP-coated and uncoated substrates (1 cm × 1 cm) were placed in 24-well plates, and 10 μL of the bacterial suspension was distributed over the substrate surface. The substrates were covered with a piece of polyethylene film (1 cm × 1 cm) and incubated for 2 h (37 °C, relative humidity: >90%). Subsequently, SCDLP broth (990 μL) was added, and viable cells were retrieved and serially diluted. Aliquots (100 μL) of the bacterial suspension were withdrawn and plated for colony counting.

In data set [2] the test system is P. aeruginosa. The data set can be described thus: Antibacterial activity of peptide-coated surfaces (ISO 22196, modified), P. aeruginosa. To be noted: NKC-DOPA5-coated PS, Ti and PDMS (1 cm × 1 cm), 10 μL of 10^6 cells/mL, 37 °C. The format is cell-based, Pseudomonas aeruginosa. The method, then: as §1
(§3) The bactericidal activities of the AMP-coated surfaces were evaluated following the International Organization for Standardization 22196 standard with slight modifications. Overnight bacterial suspensions were subcultured in fresh LB until the mid-log phase and diluted to 10^6 cells/mL with 500-fold diluted LB. […]

Data set [3] deals with S. aureus. The data set can be described thus: Antibacterial activity of peptide-coated surfaces (ISO 22196, modified), S. aureus. The format is cell-based, Staphylococcus aureus. The note with it: NKC-DOPA5-coated PS, Ti and PDMS (1 cm × 1 cm), 10 μL of 10^6 cells/mL, 37 °C. As to the method:
as §1, §3

Data set [4] deals with E. coli. The data set can be described thus: Bacterial adhesion / biofilm assay (live/dead staining, confocal microscopy), E. coli. The format is cell-based, Escherichia coli. The note with it: 10^7 cells/mL, 24 h, 37 °C, SYTO9/PI staining. As to the method: (§4) The viability of bacterial cells adhered to the substrate surface was evaluated using the Live/Dead BacLight Bacterial Viability Kit (Thermo Fisher Scientific) according to the manufacturer’s instructions. Briefly, 200 μL of bacterial suspensions adjusted to 10^7 cells/mL were incubated on uncoated or peptide-coated chambered cover glasses (Thermo Fisher Scientific) at 37 °C for 24 h. After 24 h, planktonic cells were removed, and the surfaces were washed with 0.85% (w/v) NaCl buffer. Cells attached to the surfaces were stained for 15 min in the dark with BacLight stock solution containing two fluorescent nucleic acid stains, SYTO9 and propidium iodide (PI). After staining, the surfaces were washed with 0.85% NaCl solution, and the stained cells were photographed using confocal laser-scanning microscopy (LSM 5 LIVE DuoScan, Carl Zeiss, Jena, Germany) using a 63× objective. The excitation wavelengths were 488 and 561 nm for SYTO9 and PI, respectively.

For data set [5], the system named is P. aeruginosa. The data set can be described thus: Bacterial adhesion / biofilm assay (live/dead staining, confocal microscopy), P. aeruginosa. The note with it: 10^7 cells/mL, 24 h, 37 °C, SYTO9/PI staining. It counts as cell-based, Pseudomonas aeruginosa. The method, then:
as §4

Data set [6] concerns S. aureus. The data set can be described thus: Bacterial adhesion / biofilm assay (live/dead staining, confocal microscopy), S. aureus. The format is cell-based, Staphylococcus aureus. To be noted: 10^7 cells/mL, 24 h, 37 °C, SYTO9/PI staining. The method, then:
as §4

Data set [7] relates to E. coli. Briefly: Stability assessment of surface-coated peptide (antimicrobial activity after storage). The note with it: for antimicrobial activity after storage: coated PS stored at 25 °C, (Nc−N)/Nc×100, mean ± SD. The format is cell-based, Escherichia coli. As to the method:
as §2
To evaluate the stability of the surface-coated peptides, antimicrobial activity was determined as described above after incubating the AMP-coated PS plates for 1, 7, 14, 21, 28, 56, and 84 days at 4 °C and 25 °C and with the formula below: Antimicrobial activity (%)=Nc−N/Nc×100 where Nc and N represent the number of colonies after incubation on the control and AMP-coated substrates, respectively.

For data set [8], the system named is P. aeruginosa. The data set can be described thus: Rat subcutaneous implant infection model. It counts as in vivo, Sprague–Dawley rats. The method, then:
In vivo antibacterial activity was evaluated using specific pathogen-free Sprague–Dawley male rats (7 weeks old, weighing 200−220 g). All animal experiments were approved by the Animal Ethics Committee of KNOTUS, Incheon, Korea (approval no. 18-KE-383) and performed following the guidelines for the care and use of laboratory animals of KNOTUS. All rats were housed in individually ventilated cages and acclimated for 7 days before surgery. For implantation, the rats were anesthetized by intramuscular injection of Zoletil® (30 mg/kg; Virbac, Carros, France), and the dorsum was shaved and disinfected with 70% isopropyl alcohol. Approximately 1 cm wide incisions were made parallel to the spine and extended to the subdermal fascia. For the control group, uncoated Ti screws or PDMS slides were implanted into the left flank, whereas AMP-coated implants were inserted into the right flank. The wounds were sutured, and the implant site was marked on the skin. Setting the skin mark as a guide, 100 μL of a p. aeruginosa inoculum containing 2.5 × 10^8 cells/mL was injected subcutaneously. The rats were euthanized by CO2 asphyxia at 5 days after the bacterial challenge. The implants were removed using sterile tools and placed in sterile tubes containing 1 mL of PBS. For the detachment of bacteria from the implant materials, the tubes were sonicated for 15 min, and 10-fold serial dilutions of the bacterial solution were plated on LB agar for CFU determination. The tissues surrounding the implants were carefully removed, separately immersed in 1 mL of PBS, and homogenized. Bacteria in the tissues were quantified by serial dilution. For histological examination, the tissues surrounding the implants were formaldehyde-fixed, paraffin-embedded, and then stained with hematoxylin and eosin [26].

The mark [9] stands for this setting: peptide-coated 24-well PS, 10^6 cells/mL E. coli, 2 h, colony counting.
Where [10] appears, read: coated PDMS implants, 5 days post-inoculation.

Ends that are not written are not given here.

Description for HaCaT cells: To evaluate the toxicity of the peptides coated on the substrates towards human skin, the mitochondrial dehydrogenase activity of HaCaT keratinocytes was measured in a modified 3-(4,5-dimethyl-2-thiazolyl)-2,5-diphenyl-2H-tetrazolium bromide (MTT) reduction assay. HaCaT cells were routinely cultured in Dulbecco’s modified Eagle’s medium (DMEM; Lonza, Basel, Switzerland) with 10% fetal bovine serum (Lonza) and 1% penicillin–streptomycin solution (Thermo Fisher Scientific) in humidified 5% CO2 at 37 °C. The cultured cells were washed twice with phosphate-buffered saline (PBS; pH 7.4) and detached by trypsinization. The harvested HaCaT cells were diluted to 5 × 10^4 cells/mL, seeded into 12-well culture plates, and incubated in a humidified incubator with 5% CO2. After incubation, the medium was changed to serum-free DMEM, and uncoated or AMP-coated pieces (PS/Ti/PDMS; 1 cm × 1 cm) were placed upside down on the HaCaT cells. After 24 h, the pieces were removed, and MTT solution in 1 mL of DMEM was added to each well. […] The plate was incubated overnight, and the absorbance was measured at 570 nm using a microplate reader (Tecan Infinite 200 Pro). […] Cell viability was expressed as the percentage of surviving cells on the coated substrates relative to those on the uncoated substrates.

Turning to “APKAMKLLKKLLKLQKKGI-NH2 (C-terminus assumed) [NKC, reference compound]”, the minimum inhibitory concentration (MIC) in the data set on E. coli ATCC 27325 was 1 µM. In the data set on E. coli [1] (NKC attached via polydopamine (PD) to PS plate, E. coli, 2 h), the “reduction of the cell count” value was “approximately 4.2 log”.
Consider “APKAMKLLKKLLKLQKKGIGGGGSGGGGSY [NKC-DOPA1, NKC with glycine–serine linker and 1 DOPA moiety at the C-terminus]”, for which the “bacterial growth on coated surface (in words)” value (shortened to “bacterial growth”) in the data set with E. coli [1] (setting [9]) is “hardly inhibited bacterial growth”.
For “APKAMKLLKKLLKLQKKGIGGGGSGGGGSYYY [NKC-DOPA3, NKC with glycine–serine linker and 3 DOPA moieties at the C-terminus]”, the “log reduction in the cell count” value in the data set on E. coli [1] (setting [9]) was found to be 5.7 log.
“APKAMKLLKKLLKLQKKGIGGGGSGGGGSYYYYY [NKC-DOPA5]”: the “number of viable bacterial cells after 2 h” value in the data set with E. coli [1] (NKC-DOPA5-coated PS, Ti and PDMS (1 cm × 1 cm), 10 μL of 10^6 cells/mL, 37 °C) is “zero”; in the data set on P. aeruginosa [2], “zero”; in the data set on S. aureus [3] it was “zero”. The “bacterial growth” value in the data set on E. coli [1] (setting [9]) was “No bacterial growth was observed”. The “biofilm formation on coated surface” value with E. coli [4], with P. aeruginosa [5] and in the data set with S. aureus [6] was “remarkably inhibited biofilm formation” throughout. Moreover, the “change in antimicrobial activity during storage” value with E. coli [7] (coated PS plate stored at 4 °C for 84 days) is “no change”. In addition, the “antimicrobial activity after storage” value is listed as 99.75 ± 0.16% in the data set on E. coli [7] (7 days) and 99.17 ± 3.25% with E. coli [7] (84 days). The “decrease in number of bacteria recovered from surrounding tissues vs pristine” value in the data set on P. aeruginosa [8] (PDMS implants, 5 days post-inoculation) is reported as “approximately 3.8 log CFU/g”. In addition, the “difference in number of bacteria in surrounding tissues, pristine vs coated” value in the data set with P. aeruginosa [8] (Ti implants, 5 days post-inoculation) is 3 log CFU/g. Moreover, in the data set with P. aeruginosa [8] (setting [10]), the “implants from which microorganisms were absent” value was “three of the five implants”. For the same substance, the “median number of bacteria recovered from surrounding tissues” value with P. aeruginosa [8] (setting [10]) worked out at 0.9 log CFU/g. Besides, in the data set on P. aeruginosa [8] (coated PDMS implants, five implants, 5 days post-inoculation), the “average bacterial count per implant” value is 0.92 log CFU/mL per implant. Further, the “microbial loads of the two colonised implants” value with P. aeruginosa [8] (coated PDMS, the other two of five implants, 5 days post-inoculation) was 2.0−2.6 log CFU/mL. Moreover, in the data set with P. aeruginosa [8] (coated Ti implants, 5 days post-inoculation), the “number of bacteria from tissues surrounding the implants” value came out at 2.7 log CFU/g. Moreover, the microorganisms on implants entry in the data set on P. aeruginosa [8] (coated Ti screw, five implants, 5 days post-inoculation of P. aeruginosa) is reported as “no microorganisms were observed”. The “inflammation of tissues around the implants” value with P. aeruginosa [8] (coated Ti screws and PDMS, 5 days post-inoculation, gross observation) is “without apparent inflammation”. Also, in the data set with HaCaT cells, the cell viability is listed as over 90%.
Regarding “APKAMKLLKKLLKLQKKGIGGGGSGGGGSYYYYYYY [NKC-DOPA7, NKC with glycine–serine linker and 7 DOPA moieties at the C-terminus]”, the “bacterial growth” value with E. coli [1] (setting [9]) is given as “No bacterial growth was observed”.

As usually defined, the MIC is the lowest concentration found to suppress growth. The term cell viability denotes the share of living cells, or the viability signal relative to a control.
